Counter-ions that a name gives are not always drawn. Like-named read-outs stand apart in the source and are kept apart here.
Biological target: full-length human PIKFYVE (N-terminal GST-fusion) (Homo sapiens (Human), UniProt Q9Y2I7, L932S/Q1183K/Q995L/S1033A/S696N/T998S)
Experiment: PIKfyve biochemical assay (ADP-Glo Kinase assay, Carna Biosciences)
Excerpt: (§1) PIKfyve Biochemical Assay. The biochemical PIKfyve inhibition assays were run by Carna Biosciences according to proprietary methodology based on the Promega ADP-Glo™ Kinase assay. A full-length human PIKFYVE [1-2098(end) amino acids and S696N, L932S, Q995L, T998S, S1033A and Q1183K of the protein having the sequence set forth in NCBI Reference Sequence No. NP_055855.2] was expressed as N-terminal GST-fusion protein (265 kDa) using baculovirus expression system. GST-PIKFYVE was purified by using glutathione sepharose chromatography and used in an ADP-Glo™ Kinase assay (Promega). Reactions were set up by adding the test compound solution, substrate solution, ATP solution and kinase solution, each at 4× final concentrations. Reactions were prepared with assay buffer (50 mM MOPS, 1 mM DTT, pH7.2), mixed, and incubated in black 384 well polystyrene plates for 1 hour at room temperature. ADP-Glo™ reagent was then added for 40 minutes, followed by kinase detection reagent for an additional 40 minutes. The kinase activity was evaluated by detecting relative light units on a luminescence plate reader. Samples were run in duplicate from 10 μM to 3 nM. […] IC50 values were calculated from concentration vs % inhibition curves by fitting to a four-parameter logistic curve.
as §1, with “The” for “PIKfyve Biochemical Assay. The”, “accession number” for “the protein having the sequence set forth in NCBI Reference Sequence No.”, “curve. […]” for “curve.”

[1] = ADP-Glo, full-length human GST-PIKFYVE, 10 μM to 3 nM, read-out: hPIKfyve IC50
[2] = values plotted in FIG. 7, read-out: PIKFYVE Biochemistry (IC50)

full-length human PIKFYVE (N-terminal GST-fusion), sequence (Q9Y2I7 whole entry S696N/L932S/Q995L/T998S/S1033A/Q1183K, the tested form may be a part): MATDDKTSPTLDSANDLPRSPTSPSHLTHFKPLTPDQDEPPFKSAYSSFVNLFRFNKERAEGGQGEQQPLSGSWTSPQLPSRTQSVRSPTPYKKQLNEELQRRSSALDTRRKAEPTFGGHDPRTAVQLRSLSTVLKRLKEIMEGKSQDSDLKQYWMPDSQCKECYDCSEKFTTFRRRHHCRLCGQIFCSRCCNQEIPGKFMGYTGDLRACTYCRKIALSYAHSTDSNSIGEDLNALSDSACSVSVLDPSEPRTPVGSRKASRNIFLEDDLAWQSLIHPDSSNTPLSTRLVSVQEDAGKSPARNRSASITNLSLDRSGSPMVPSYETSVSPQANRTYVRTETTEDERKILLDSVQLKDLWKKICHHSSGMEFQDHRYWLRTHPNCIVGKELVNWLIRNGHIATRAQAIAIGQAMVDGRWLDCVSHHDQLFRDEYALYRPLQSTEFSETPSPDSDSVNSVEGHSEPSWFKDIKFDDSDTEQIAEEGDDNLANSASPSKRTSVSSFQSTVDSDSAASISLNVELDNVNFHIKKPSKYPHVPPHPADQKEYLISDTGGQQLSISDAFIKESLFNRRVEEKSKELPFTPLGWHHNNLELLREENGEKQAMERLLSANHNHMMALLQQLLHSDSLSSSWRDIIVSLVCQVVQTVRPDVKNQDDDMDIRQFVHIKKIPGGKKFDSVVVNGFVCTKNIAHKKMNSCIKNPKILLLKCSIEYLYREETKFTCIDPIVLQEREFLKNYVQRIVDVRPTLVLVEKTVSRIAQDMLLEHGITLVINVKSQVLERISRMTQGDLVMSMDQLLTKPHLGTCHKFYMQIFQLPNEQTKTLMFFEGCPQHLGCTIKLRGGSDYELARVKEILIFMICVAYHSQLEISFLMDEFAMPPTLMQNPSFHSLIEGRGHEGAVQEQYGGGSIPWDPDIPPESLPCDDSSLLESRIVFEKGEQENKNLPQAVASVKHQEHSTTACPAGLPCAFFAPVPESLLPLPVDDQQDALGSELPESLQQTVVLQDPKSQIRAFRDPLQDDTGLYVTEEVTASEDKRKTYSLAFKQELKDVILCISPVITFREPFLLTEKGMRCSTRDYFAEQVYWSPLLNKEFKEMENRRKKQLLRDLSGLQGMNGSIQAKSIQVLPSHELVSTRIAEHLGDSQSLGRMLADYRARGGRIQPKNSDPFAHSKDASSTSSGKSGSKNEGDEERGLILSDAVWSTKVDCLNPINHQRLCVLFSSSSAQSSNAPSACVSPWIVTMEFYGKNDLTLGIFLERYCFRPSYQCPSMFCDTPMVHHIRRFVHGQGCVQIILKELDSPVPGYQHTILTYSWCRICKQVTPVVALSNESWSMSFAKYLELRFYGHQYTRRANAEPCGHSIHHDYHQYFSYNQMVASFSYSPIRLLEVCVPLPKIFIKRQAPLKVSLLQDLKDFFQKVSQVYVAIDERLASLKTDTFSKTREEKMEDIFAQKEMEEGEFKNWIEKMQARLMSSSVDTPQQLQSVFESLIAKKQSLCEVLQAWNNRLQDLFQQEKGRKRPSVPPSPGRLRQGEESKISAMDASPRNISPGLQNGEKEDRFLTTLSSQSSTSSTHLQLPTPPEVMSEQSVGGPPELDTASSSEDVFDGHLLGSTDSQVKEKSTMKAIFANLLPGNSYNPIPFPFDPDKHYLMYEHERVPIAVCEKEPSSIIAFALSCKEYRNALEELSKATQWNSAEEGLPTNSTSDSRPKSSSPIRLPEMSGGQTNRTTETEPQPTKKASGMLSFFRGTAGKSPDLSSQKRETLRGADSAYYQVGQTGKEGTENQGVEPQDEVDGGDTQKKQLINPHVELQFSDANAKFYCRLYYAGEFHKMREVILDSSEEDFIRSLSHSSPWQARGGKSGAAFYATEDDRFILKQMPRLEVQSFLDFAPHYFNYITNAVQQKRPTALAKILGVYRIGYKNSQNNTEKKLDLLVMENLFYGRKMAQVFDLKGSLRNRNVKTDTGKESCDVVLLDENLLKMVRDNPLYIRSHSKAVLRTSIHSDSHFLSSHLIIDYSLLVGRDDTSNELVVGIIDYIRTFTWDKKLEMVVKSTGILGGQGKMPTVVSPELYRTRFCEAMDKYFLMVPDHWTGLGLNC

IC50 [2] [nM]	Compound	IC50 [1] [nM]
	CN1CCCC(COc2nc(N3CCOCC3)nc3c2CCN3c2ccnnc2)C1 (stereo not drawn) [Compound 17, 4-(4-((1-methylpiperidin-3-yl)methoxy)-7-(pyridazin-4-yl)-6,7-dihydro-5H-pyrrolo[2,3-d]pyrimidin-2-yl)morpholine]	100 to 1000
	CC(C)(C)OC(=O)N1CCC(c2nc(N3CCOCC3)nc3c2CCN3c2cccnc2)CC1 [Compound 107, tert-butyl 4-(2-morpholino-7-(pyridin-3-yl)-6,7-dihydro-5H-pyrrolo[2,3-d]pyrimidin-4-yl)piperidine-1-carboxylate]	100 to 1000
> 10000	O=c1c(CCOc2cccnc2)cc2ncncc2n1-c1ccccc1	
	c1ccc(N2CCc3c(OCc4cccnc4)nc(N4CCOCC4)nc32)cc1 [Compound 25, 4-(7-phenyl-4-(pyridin-3-ylmethoxy)-6,7-dihydro-5H-pyrrolo[2,3-d]pyrimidin-2-yl)morpholine]	10 to 100
	c1ccc(N2CCc3c(OCc4ccncc4)nc(N4CCOCC4)nc32)cc1 [Compound 26, 4-(7-phenyl-4-(pyridin-4-ylmethoxy)-6,7-dihydro-5H-pyrrolo[2,3-d]pyrimidin-2-yl)morpholine]	100 to 1000
	c1cncc(N2CCc3c(-c4ccncc4)nc(N4CCOCC4)nc32)c1 [Compound 105, 4-(7-(pyridin-3-yl)-4-(pyridin-4-yl)-6,7-dihydro-5H-pyrrolo[2,3-d]pyrimidin-2-yl)morpholine]	10 to 100
	CN1CCC(c2nc(N3CCOCC3)nc3c2CCN3c2ccccc2)CC1 [Compound 112, 4-(4-(1-methylpiperidin-4-yl)-7-phenyl-6,7-dihydro-5H-pyrrolo[2,3-d]pyrimidin-2-yl)morpholine]	10 to 100
	CN1CCC(OCc2nc(N3CCOCC3)nc3c2CCN3c2cccnc2)C1 (stereo not drawn) [Compound 66, 4-(4-((1-methylpyrrolidin-3-yloxy)methyl)-7-(pyridin-3-yl)-6,7-dihydro-5H-pyrrolo[2,3-d]pyrimidin-2-yl)morpholine]	1000 to 10000
	Fc1cccc(N2CCc3c(-c4ccncc4)nc(N4CCOCC4)nc32)c1 [Compound 104, 4-(7-(3-fluorophenyl)-4-(pyridin-4-yl)-6,7-dihydro-5H-pyrroolo[2,3-d]pyrimidin-2-yl)morpholine]	< 10
	c1ccc(N2CCc3c(NC4COC4)nc(N4CCOCC4)nc32)cc1 [Compound 76, 2-morpholino-N-(oxetan-3-yl)-7-phenyl-6,7-dihydro-5H-pyrrolo[2,3-d]pyrimidin-4-amine]	> 10000
	O=C(Cc1ccccc1)N1CCc2c(-c3ccncc3)nc(N3CCOCC3)nc21 [Compound 73, 1-(2-morpholino-4-(pyridin-4-yl)-5,6-dihydro-7H-pyrrolo[2,3-d]pyrimidin-7-yl)-2-phenylethan-1-one]	10 to 100
	c1cc(-c2nc(N3CCOCC3)nc3c(-c4ccncn4)c[nH]c23)ccn1 [Compound 137, 4-(4-(pyridin-4-yl)-7-(pyrimidin-4-yl)-6H-pyrrolo[3,2-d]pyrimidin-2-yl)morpholine]	10 to 100
	CC(C)(O)Cc1nc(N2CCOCC2)nc2c1CCN2c1ccccc1 [Compound 46, 2-methyl-1-(2-morpholino-7-phenyl-6,7-dihydro-5H-pyrrolo[2,3-d]pyrimidin-4-yl)propan-2-ol]	10 to 100
	COc1cccc(C2CC2c2nc(N3CCOCC3)nc3c2CCN3c2cccnc2)c1 (stereo not drawn) [Compound 122, 4-(4-(2-(3-methoxyphenyl)cyclopropyl)-7-(pyridin-3-yl)-6,7-dihydro-5H-pyrrolo[2,3-d]pyrimidin-2-yl)morpholine]	100 to 1000
	c1cc(N2CCc3c(-c4ccoc4)nc(N4CCOCC4)nc32)cnn1 [Compound 96, 4-(4-(furan-3-yl)-7-(pyridazin-4-yl)-6,7-dihydro-5H-pyrrolo[2,3-d]pyrimidin-2-yl)morpholine]	10 to 100
> 10000	c1ccc(-c2nc(-c3cc(N4CCOCC4)nc(OCc4ccncc4)n3)no2)cc1	
	c1ccc(N2CCc3c(-c4ccccn4)nc(N4CCOCC4)nc32)cc1 [Compound 90, 4-(7-phenyl-4-(pyridin-2-yl)-6,7-dihydro-5H-pyrrolo[2,3-d]pyrimidin-2-yl)morpholine]	100 to 1000

IC50 [2] [nM]	Compound	IC50 [1] [nM]
	4-(7-(3-fluorophenyl)-4-(pyridin-3-ylmethoxy)-6,7-dihydro-5H-pyrrolo[2,3-d]pyrimidin-2-yl)morpholine [Compound 3]	100 to 1000
	c1ccc(-c2ccn(-c3nc(N4CCOCC4)nc4c3CCN4c3ccncc3)n2)cc1 [Compound 84, 4-(4-(3-phenyl-1H-pyrazol-1-yl)-7-(pyridin-4-yl)-6,7-dihydro-6H-pyrrolo[2,3-d]pyrimidin-2-yl)morpholine]	10 to 100
	c1ccc(N2CCc3c(-c4ccnnc4)nc(N4CCOCC4)nc32)cc1 [Compound 99, 4-(7-phenyl-4-(pyridazin-4-yl)-6,7-dihydro-5H-pyrrolo[2,3-d]pyrimidin-2-yl)morpholine]	10 to 100
	c1ccc(N2CCc3c(C4CCOC4)nc(N4CCOCC4)nc32)cc1 (stereo not drawn) [Compound 87, 4-(7-phenyl-4-(tetrahydrofuran-3-yl)-6,7-dihydro-5H-pyrrolo[2,3-d]pyrimidin-2-yl)morpholine]	10 to 100
	c1ccc(N2CCc3c(C4CCNCC4)nc(N4CCOCC4)nc32)cc1 [Compound 111, 4-(7-phenyl-4-(piperidin-4-yl)-6,7-dihydro-5H-pyrrolo[2,3-d]pyrimidin-2-yl)morpholine]	100 to 1000
	COc1cccc(-c2c[nH]c3c(-c4ccncc4)nc(N4CCOCC4)nc23)n1 [Compound 139, 4-(7-(6-methoxypyridin-2-yl)-4-(pyridin-4-yl)-5H-pyrrolo[3,2-d]pyrimidin-2-yl)morpholine]	10 to 100
	CN1CCC(c2nc(N3CCOCC3)nc3c2ncn3-c2ccccc2)C1 (stereo not drawn) [Compound 126, 4-(6-(1-methylpyrrolidin-3-yl)-9-phenyl-9H-purin-2-yl)morpholine]	1000 to 10000
	c1ccc(-c2nccc(-c3nc(N4CCOCC4)nc4c3CCN4c3cccnc3)n2)cc1 [Compound 124, 4-(4-(2-phenylpyrimidin-4-yl)-7-(pyridin-3-yl)-6,7-dihydro-5H-pyrrolo[2,3-d]pyrimidin-2-yl)morpholine hydrochloride]	10 to 100
	c1cncc(N2CCc3c(COC4CCNC4)nc(N4CCOCC4)nc32)c1 (stereo not drawn) [Compound 64, 4-(7-(pyridin-3-yl)-4-((pyrrolidin-3-yloxy)methyl)-6,7-dihydro-5H-pyrrolo[2,3-d]pyrimidin-2-yl)morpholine]	1000 to 10000
	Cn1nccc1-c1c[nH]c2c(-c3ccncc3)nc(N3CCOCC3)nc12 [Compound 141, 4-(7-(1-methyl-1H-pyrazol-5-yl)-4-(pyridin-4-yl)-5H-pyrrolo[3,2-d]pyrimidin-2-yl)morpholine]	10 to 100
	CCN1CCCC(COc2nc(N3CCOCC3)nc3c2CCN3c2cccnc2)C1 (stereo not drawn) [Compound 10, 4-(4-((1-ethylpiperidin-3-yl)methoxy)-7-(pyridin-3-yl)-6,7-dihydro-5H-pyrrolo[2,3-d]pyrimidin-2-yl)morpholine]	100 to 1000
	CC(C)(C)OC(=O)N1CC(c2nc(N3CCOCC3)nc3c2CCN3c2ccccc2)C1 [Compound 113, tert-butyl 3-(2-morpholino-7-phenyl-6,7-dihydro-5H-pyrrolo[2,3-d]pyrimidin-4-yl)azetidine-1-carboxylate]	< 10
	c1cncc(N2CCc3c(OCCC4CCCO4)nc(N4CCOCC4)nc32)c1 (stereo not drawn) [Compound 31, 4-(7-(pyridin-3-yl)-4-(2-(tetrahydrofuran-2-yl)ethoxy)-6,7-dihydro-5H-pyrrolo[2,3-d]pyrimidin-2-yl)morpholine]	10 to 100
	c1ccc(-n2ncc3c(N4CCOCC4)nc(OCc4cccnc4)nc32)cc1 [Compound 131, 4-(1-phenyl-6-(pyridin-3-ylmethoxy)-1H-pyrazolo[3,4-d]pyrimidin-4-yl)morpholine]	1000 to 10000
	Cc1cccc(N2C(=O)Cc3c(OCc4cccnc4)nc(N4CCOCC4)nc32)c1 [Compound 129, 2-morpholino-4-(pyridin-3-ylmethoxy)-7-m-tolyl-5H-pyrrolo[2,3-d]pyrimidin-6(7H)-one]	100 to 1000
	c1cncc(N2CCc3c(OCC4CCCO4)nc(N4CCOCC4)nc32)c1 (stereo not drawn) [Compound 23, 4-(7-(pyridin-3-yl)-4-((tetrahydrofuran-2-yl)methoxy)-6,7-dihydro-6H-pyrrolo[2,3-d]pyrimidin-2-yl)morpholine]	100 to 1000
